Laboratory results reported in ChEMBL document CHEMBL1149855, “Dihydrobenzo[c]phenanthridine alkaloids from stem bark of Zanthoxylum nitidum” (J Nat Prod, 2008).
Active and inactive are the calls of the source.

What was measured:
Format in all cases: functional, cell-based
[1] = system: MCF7; assay: Cytotoxicity against human MCF7 cells up to 29.2 ug/mL after 72 hrs by MTS reduction assay
[2] = system: NCI-H460; assay: Cytotoxicity against human NCI-H460 cells up to 29.2 ug/mL after 72 hrs by MTS reduction assay
[3] = system: SF-268; assay: Cytotoxicity against human SF268 cells up to 29.2 ug/mL after 72 hrs by MTS reduction assay

Measured: Activity

COc1ccc2c(c1OC)[C@H](CC1=C[C@H]3[C@H](C(C)C)CC[C@](C)(OC)[C@H]3CC1)N(C)c1c-2ccc2cc3c(cc12)OCO3
inactive: [1] | [2] | [3]

COc1ccc2c(c1OC)[C@@H](CC1=C[C@H]3[C@H](C(C)C)CC[C@](C)(OC)[C@H]3CC1)N(C)c1c-2ccc2cc3c(cc12)OCO3
inactive: [1] | [2] | [3]

COc1ccc2c(c1OC)[C@@H](CC1=C[C@@H]3[C@@H](CC1)[C@](C)(OC)CC[C@H]3C(C)C)N(C)c1c-2ccc2cc3c(cc12)OCO3
inactive: [1] | [2] | [3]

COc1ccc2c(c1OC)[C@H](CC1=C[C@@H]3[C@@H](CC1)[C@](C)(OC)CC[C@H]3C(C)C)N(C)c1c-2ccc2cc3c(cc12)OCO3
inactive: [1] | [2] | [3]

COc1ccc2c(c1OC)[C@@H](CC1=C[C@@H]3[C@@H](CC1)[C@@](C)(OC)CC[C@H]3C(C)C)N(C)c1c-2ccc2cc3c(cc12)OCO3
inactive: [1] | [2] | [3]
